According to publication PMC9841593 (ACS Medicinal Chemistry Letters, 2022):

Assay: pH-metric titration of pKa

SMILES | Measured pKa (phenolic proton, pH-metric titration) | pKa
O=C(O)c1[nH]c(Br)cc(=O)c1O [Compound 2] | 9.79 ± 0.01 | –
NC(=O)c1[nH]c(Br)cc(=O)c1O [Compound 3] | – | 9.64 ± 0.02
O=c1cc(Br)[nH]c(-c2nnn[nH]2)c1O [Compound 4] | – | > 12
N/C(=N\O)c1[nH]c(Br)cc(=O)c1O [Compound 6] | – | 9.06 ± 0.02
